{"source": "patent US20240103005A1", "about": "“N-ACRYLOYLINDOLES AND METHODS OF USE” (The University of Hong Kong, priority 2022, published 2024)", "key": {"[1]": {"assay": "Reaction kinetics of cysteine-reactive compounds with N-acetyl-L-cysteine methyl ester (LC-MS)", "type": "physicochemical", "conditions": "for time to complete reaction with N-acetylcysteine methyl ester: PBS/MeOH 4:1; for calculated rate constant, fold faster than NAIA: reaction with N-Ac-Cys-OMe 250 μM", "procedure": "Reaction Kinetics of Cysteine-Reactive Compounds with N-Acetyl-L-Cysteine Methyl Ester\nStock solution of cysteine-reactive compound in DMSO was diluted by PBS/MeOH solution mixture (4:1, v/v; 500 μL), reaching final concentration of 10 μM. Stock solution of N-acetyl-L-cysteine methyl ester in DMSO was then freshly prepared, and added to the compound solution at final concentration of 250 μM. The solution mixture was incubated at room temperature, and at predetermined time intervals, an aliquot of the reaction mixture (10 μL) was sent for LC-MS analysis on Waters Autopurification System using a SunFire C18 HPLC column (50×4.6 mm with 5 μm diameter particles, Waters). Separation was achieved by gradient elution from 5% to 100% MeCN in water (constant 0.1 vol % formic acid) over 4 min, isocratic elution with 100% MeCN (with 0.1 vol % formic acid) from 4 to 8 min, and returning to 5% MeCN in water (with 0.1 vol % formic acid) and equilibrated for 2 min. Selected ion chromatograms, with m/z corresponding to the molecular ion of the compound and/or the adduct, were extracted and the data was analyzed using MassLynx™ software by calculating the area under the curve. The peak area was then calibrated to concentration of the compound/adduct by a set of solution mixtures containing known concentrations of the compound/adduct.\nThe reactivity of NAIA with cysteine in aqueous buffer solution has been investigated by LC-MS experiments (FIGS. 1A-1J). […] Upon addition of N-acetylcysteine methyl ester (250 μM), NAIA-5 reacted quickly and completely with N-acetylcysteine methyl ester within […], as reflected by the diminishment of the peak of NAIA-5 at t=6.20 min with a concomitant growth of a new peak at t=5.60 min in the LC, which is attributable to the cysteine adduct of NAIA-5 based on the MS (FIGS. 1B-1G). […] This highlights the important contribution of aromaticity of indole scaffold to increase electrophilicity of acrylamide warhead for fast and complete cysteine reaction in aqueous buffer solution.\nNext, we monitored the reaction between NAIA-amide (10 μM) and N-acetylcysteine methyl ester (250 μM) by LC-MS analysis (FIG. 17A). Complete conversion of NAIA-C5 amide was observed within 40 s as indicated by the disappearance of NAIA-C5 amide peak (t=5.09 min) and emergence of the adduct peat (t=4.80 min) in the LC trace (FIG. 17B). Likewise, the reaction of NAIA-C4 amide proceeded with fast kinetics and was completely consumed in 1 min (FIG. 17C). The calculated rate constant of NAIA-C5 amide and NAIA-C4 amide were 2-fold and 1.2-fold faster than NAIA (FIG. 17D). […] Owning to the excellent reaction rate of NAIA-C5 amide, it was taken forward for further comparative analysis in subsequent experiments."}, "[2]": {"assay": "Selectivity for reacting with Cys over other amino acids (LC-MS)", "type": "physicochemical", "conditions": "compound 10 μM, amino acid 30 μM (3 equiv.), 30 min, PBS/MeOH 4:1", "procedure": "Selectivity of NAI for Reacting with Cys Over Other Amino Acids\nStock solution of NAIA-4 and NAIA-5, respectively, in DMSO was diluted by PBS/MeOH solution mixture (4:1, v/v; 500 μL), reaching final concentration of 10 μM. Stock solution of amino acid in DMSO was then freshly prepared, and added to the compound solution at final concentration of 30 μM. The solution mixture was incubated at room temperature for 30 min. After that, an aliquot of the reaction mixture (10 μL) was sent for LC-MS analysis. Selected ion chromatograms, with m/z=325 corresponding to [NAIA-4+H]^+ or [NAIA-5+H]^+, were extracted and analyzed by integrating the area under curve.\n(§1) As fast-reacting probes are often susceptible to hydrolysis, we sought to investigate the aqueous stability of NAIA-C5 amide. […] Taking the excellent reaction kinetics and a mere 14% degradation in 30 min into account, NAIA-C5 amide was considered to be a useful tool in cysteine profiling (FIG. 17C and FIG. 17F)."}, "[3]": {"tested_on": "231MFP cell lysates", "assay": "Gel-based ABPP, Cys labeling of 231MFP cell lysates (in-gel fluorescence)", "type": "biochemical", "conditions": "30 min incubation", "procedure": "FIGS. 10A-10D. Gel-based ABPP experiments of NAIA-4 to investigate its ability to label Cys in cell lysates and live cells. (FIGS. 10A-10B) 231MFP cell lysates (20 μg) were incubated with NAIA-4 or IAA at indicated concentrations for 30 min, following by CuAAC reaction with azide-fluor 545 (5 μM). The labeled proteins were then boiled with sampling buffer, and read out by in-gel fluorescence after SDS-PAGE. Quantified data were shown in average±s.e.m. from n=3 replicates/group. Statistical significance vs untreated control is expressed as *p<0.05; ***p<0.001, and vs different treatment groups is expressed as “p<0.01; ^###p<0.001. (FIGS. 10C-10D) 231MFP cells were pre-treated with NAIA-4 or IAA at indicated concentrations for 1 h. […] The cell lysates were labeled with azide-fluor 545 (25 μM) by CuAAC reaction, and the labeled protein were detected by in-gel fluorescence after SDS-PAGE. Quantified data were shown in average±s.e.m. from n=3 biological replicates/group. Statistical significance is expressed as *p<0.05; ***p<0.001.\nIn-Gel Fluorescence for Visualizing Cys Labeling by NAIAs and IAA In Vitro\nHepG2 or 231MFP cells were lysed by probe sonication in DPBS, and cell debris were removed by centrifugation at 1,000 g for 5 min. Protein concentration of the lysates was determined by bicinchoninic acid (BCA) assay, and the lysates were then diluted to 2 mg/mL by DPBS. […]"}, "[4]": {"tested_on": "231MFP cells", "assay": "Gel-based ABPP, Cys labeling in live 231MFP cells", "type": "cell-based", "conditions": "1 h pre-treatment", "procedure": "FIGS. 10A-10D. Gel-based ABPP experiments of NAIA-4 to investigate its ability to label Cys in cell lysates and live cells. (FIGS. 10A-10B) 231MFP cell lysates (20 μg) were incubated with NAIA-4 or IAA at indicated concentrations for 30 min, following by CuAAC reaction with azide-fluor 545 (5 μM). The labeled proteins were then boiled with sampling buffer, and read out by in-gel fluorescence after SDS-PAGE. Quantified data were shown in average±s.e.m. from n=3 replicates/group. Statistical significance vs untreated control is expressed as *p<0.05; ***p<0.001, and vs different treatment groups is expressed as “p<0.01; ^###p<0.001. (FIGS. 10C-10D) 231MFP cells were pre-treated with NAIA-4 or IAA at indicated concentrations for 1 h. The cells were then washed with DPBS and lysed in DPBS by probe sonication. The cell lysates were labeled with azide-fluor 545 (25 μM) by CuAAC reaction, and the labeled protein were detected by in-gel fluorescence after SDS-PAGE. Quantified data were shown in average±s.e.m. from n=3 biological replicates/group. Statistical significance is expressed as *p<0.05; ***p<0.001.\nIn-Gel Fluorescence for Visualizing Cys Labeling by NAIAs and IAA in Live Cells\n231MFP or HepG2 cells were grown in 10-cm plates in complete medium. […] Protein concentration of the lysates was determined by BCA assay, and the lysates were diluted to 2 mg/mL by DPBS. […]"}, "[5]": {"tested_on": "231MFP cells", "assay": "WST-8 cell viability assay", "type": "cell-based", "conditions": "WST-8, 2 h incubation; read-out: IC50 (cytotoxicity)", "procedure": "WST-8 Cell Viability Assay of Cells Treated with NAIA-4 or IAA\n231MFP cells were plated on 96-well plates (Corning, 3904) at 30,000 cells per well and allowed to grow in complete medium overnight. The cells were then incubated with DMSO solvent control, NAIA-4 or IAA at indicated concentrations for 2 h. The solution was replaced with new culture medium containing 10 μL of WST-8 solution (Abcam; ab228554) and incubated for 2 h in dark at 37° C. Cell viability were then assayed by the absorption at 460 nm on SpectraMax i3 (Molecular Devices)."}, "[6]": {"assay": "Stability in aqueous buffer solution over time (LC-MS)", "type": "physicochemical", "procedure": "Stability of NAIA-5 in Aqueous Buffer Solution Over Time\nNAIA-5 (10 μM) was dissolved in PBS/MeOH solution mixture (4:1, v/v; 500 μL) and stay at room temperature. At predetermined time intervals, an aliquot of the reaction mixture (10 μL) was sent for LC-MS analysis on Waters Autopurification System using a SunFire C18 HPLC column (50×4.6 mm with 5 μm diameter particles, Waters). Separation was achieved by gradient elution from 5% to 100% MeCN in water (constant 0.1 vol % formic acid) over 4 min, isocratic elution with 100% MeCN (with 0.1 vol % formic acid) from 4 to 8 min and returning to 5% MeCN in water (with 0.1 vol % formic acid) and equilibrated for 2 min. Selected ion chromatograms, with m/z=325 corresponding to [NAIA-5+H]^+, were extracted and analyzed by integrating the area under curve.\nas §1"}, "[7]": {"tested_on": "HCT116 cell lysates", "assay": "Gel-based ABPP, Cys labeling of HCT116 cell lysates", "type": "biochemical", "procedure": "FIGS. 18A-18B Gel-based ABPP analysis of NAIA-amides, NAIA-5 and IAA on Cys labeling of HCT116 cell lysates in vitro. HCT116 cell lysates (100 μg) were incubated with the compounds at indicated concentrations and time intervals, following by CuAAC reaction with azide-fluor 545 (25 μM). The labeled proteins were then boiled with sampling buffer, and read out by in-gel fluorescence after SDS-PAGE.\nConfirming the reaction between NAIA-C5 amide and cysteine in vitro, we moved on to evaluate its application for cysteine profiling in complex biological sample. To assess this, we performed gel-based ABPP in cell lysates and in live cells. HCT116 cell lysates were incubated with IAA, NAIA and NAIA-Amide, followed by installation of fluorophore by click chemistry. Then, the labelled proteins were resolved by SDS-PAGE and visualized by their in-gel fluorescence. […] In time-dependent experiments, a 15-minute incubation of NAIA-C5 amide with HCT116 cell lysates was sufficient to have decent labeling, highlighting its quick labeling (FIG. 18B)."}, "[8]": {"conditions": "compound 10 μM, N-Ac-Cys-OMe 250 μM"}}, "note": "Entries after “also recorded” stand apart in the source; their conditions may differ."}
{"smiles": "C#CCCCCNC(=O)COc1cccc2c1ccn2C(=O)C=C", "note": "[NAIA-4]", "values": [{"measurement": "time to complete reaction with N-acetylcysteine methyl ester", "setting": "[1]; [8]", "value": "≤ 120", "unit": "s"}, {"measurement": "selectivity toward cysteine over other amino acids", "setting": "[2]", "value": "excellent selectivity toward cysteine over other amino acids; also recorded: Significant decreases in NAIA-4 and NAIA-5 levels were only found in the solution mixture with N-acetyl-L-cysteine methyl ester"}, {"measurement": "cysteine labeling (in-gel fluorescence) compared with IAA", "setting": "[3]", "value": "better labeling from NAIA-4 than IAA at all the doses tested"}, {"measurement": "cysteine labeling in live cells (in-gel fluorescence) compared with IAA", "setting": "[4]", "value": "more labeling of functional cysteines by NAIA-4 than IAA"}, {"measurement": "IC50", "setting": "[5]", "value": "> 40", "unit": "µM"}]}
{"smiles": "C#CCCCCNC(=O)c1cn(C(=O)C=C)c2ccccc12", "note": "[NAIA-C3 amide]", "values": [{"measurement": "cysteine reaction rate (in words)", "setting": "[1]; [8]", "value": "reacted relatively slower despite it still showed superior reaction kinetics over IAA"}]}
{"smiles": "C#CCCCCNC(=O)c1cccc2c1ccn2C(=O)C=C", "note": "[NAIA-C4 amide]", "values": [{"measurement": "time to complete consumption by N-acetylcysteine methyl ester", "setting": "[1]; [8]", "value": 1, "unit": "min"}, {"measurement": "calculated rate constant, fold faster than NAIA", "setting": "[1]", "value": 1.2, "unit": "fold"}]}
{"smiles": "C#CCCCCNC(=O)c1ccc2c(ccn2C(=O)C=C)c1", "note": "[NAIA-C5 amide]", "values": [{"measurement": "time to complete reaction with N-acetylcysteine methyl ester", "setting": "[1]; [8]", "value": "≤ 40", "unit": "s"}, {"measurement": "calculated rate constant, fold faster than NAIA", "setting": "[1]", "value": 2, "unit": "fold"}, {"measurement": "selectivity toward cysteine over other amino acids", "setting": "[2]", "value": "only incubation with cysteine consumed NAIA-C5 amide to an undetectable level"}, {"measurement": "change of compound level in aqueous buffer solution over time (in words)", "setting": "[6]; 10 μM, PBS/MeOH 4:1, room temperature", "value": "gradual degradation was observed in 3 hours"}, {"measurement": "degradation in aqueous buffer", "setting": "[6]; 30 min", "value": 14, "unit": "%"}, {"measurement": "in-gel fluorescence (in words)", "setting": "[7]", "value": "comparable to that by NAIA; also recorded: significantly stronger fluorescence was detected in samples incubated with NAIA or NAIA-C5 amide in a dose-dependent manner"}, {"measurement": "overall in-gel fluorescence intensity, fold higher than IAA", "setting": "[7]", "value": 3, "unit": "fold"}, {"measurement": "incubation time sufficient for decent labeling", "setting": "[7]; time-dependent experiment", "value": 15, "unit": "min"}]}
{"smiles": "C=CC(=O)N1CCc2ccccc21", "note": "[NAine, N-acryloylindoline]", "values": [{"measurement": "reaction kinetics with cysteine (k)", "setting": "[1]; FIG. 7 legend summary", "value": "< 10^0 M^−1 s^−1"}]}
